Holding throughout (format): in vitro ADME
A short description of data set [1]: Liver microsomal stability in human. The note with it: human liver microsomes, 0.5 mg protein/mL, 1 μM compound, 37° C. The protocol:
(§1) Experimental Example 2: Evaluation on Liver Microsomal Stability of the Compound Disclosed Herein in Human/Canine
(§2) An appropriate amount of the compound was precisely weighed and dissolved in DMSO to prepare a 5.0 mM stock solution. 5.0 mM stock solution was diluted to 1.0 mM with DMSO, and then diluted with water to 10 μM, serving as a compound working solution for later use (DMSO content in the reaction system: 0.1% v/v).
(§3) • (1) The liver microsomes (20 mg protein/mL) were taken from a −80° C. refrigerator, pre-incubated on a 37° C. water bath thermostatic oscillator for 3 min, and thawed for use. • (2) A mixed incubation system solution (without compounds or β-NADPH) was prepared according to the proportion of “composition of the incubation system” described above and pre-incubated on a 37° C. water bath thermostatic oscillator for 2 min. • (3) Control group (without β-NADPH): 30 μL of water and 30 μL of compound working solution (10 μM) were added to 240 μL of the mixed incubation system solution in step (2), and the mixture was vortexed for 30 s and mixed. The total volume of the mixture was 300 μL. The sample was duplicated. The reaction solution was placed on a 37° C. water bath thermostatic oscillator for incubation, and timing was started. Samples were collected at 0 min and 60 min. • (4) Sample group: 70 μL of β-NADPH solution (10 mM) and 70 μL of compound working solution (10 μM) were added to 560 μL of the mixed incubation system solution in step (2), and the total volume of the mixture was 700 μL. The mixture was vortexed for 30 s and mixed. The sample was duplicated. The reaction solution was placed on a 37° C. water bath thermostatic oscillator for incubation, and timing was started. Samples were collected at 0 min, 5 min, 10 min, 20 min, 30 min and 60 min after timing. • (5) The reaction solution was vortexed for 3 min, and centrifuged at 12,000 rpm for 5 min. • (6) 50 μL of the supernatant was added to 150 μL of water, and the resulting solution was vortexed and mixed before LC/MS/MS analysis.
(§4) The half-life (t1/2) and clearance (Cl) were calculated using the following first-order kinetic formula:
(§5) Vd=1/protein content in liver microsomes
(§6) Note: k denotes the slope of the logarithm of the remaining amount of a compound vs. time, Vd denotes apparent volume of distribution, C0 denotes drug concentration at 0 h, Ct denotes drug concentration at time t, t denotes time, e denotes natural number, and Clint denotes intrinsic clearance.
On the technique in general: Liver microsomes are vesicles of endoplasmic reticulum, rich in cytochrome P450 enzymes.

Data set [2] in a line: Liver microsomal stability in rat. Conditions: rat liver microsomes, 0.5 mg protein/mL, 1 μM compound, 37° C. The protocol:
(§7) Experimental Example 4:Evaluation on Liver Microsomal Stability of the Compound Disclosed Herein in Mouse/Rat
(§8) Objective: To evaluate the liver microsomal stability of the compound disclosed herein in mouse/rat
as §2
(§9) An appropriate amount of the compound was precisely weighed and dissolved in methanol to prepare a 5.0 mM stock solution. 5.0 mM stock solution was diluted to 1.0 mM with methanol, and then diluted with 10% methanol-water (v/v) solution to 10 μM, serving as a compound working solution for later use (methanol content in the reaction system: 1.1% v/v).
(§10) • (1) The liver microsomes (20 mg protein/mL) were taken from a −80° C. refrigerator, pre-incubated on a 37° C. water bath thermostatic oscillator for 3 min, and thawed for use. • (2) A mixed incubation system solution (without compounds or […]) was prepared according to the proportion of “composition of the incubation system” described above and pre-incubated on a 37° C. water bath thermostatic oscillator for 2 min. • (3) Control group (without β-NADPH): 30 μL of water and 30 μL of compound working solution (10 μM) were added to 240 μL of the mixed incubation system solution in step (2), and the mixture was vortexed for 30 s and mixed. The total volume of the mixture was 300 μL. The sample was duplicated. The reaction solution was placed on a 37° C. water bath thermostatic oscillator for incubation, and timing was started. Samples were collected at 0 min and 60 min. • (4) Sample group: 70 μL of β-NADPH solution (10 mM) and 70 μL of compound working solution (10 μM) were added to 560 μL of the mixed incubation system solution in step (2), and the total volume of the mixture was 700 μL. The mixture was vortexed for 30 s and mixed. The sample was duplicated. The reaction solution was placed on a 37° C. water bath thermostatic oscillator for incubation, and timing was started. Samples were collected at 0 min, 5 min, 10 min, 20 min, 30 min and 60 min after timing. • (5) The reaction solution was vortexed for 3 min, and centrifuged at 12,000 rpm for 5 min. • (6) 50 μL of the supernatant was added to 150 μL of water, and the resulting solution was vortexed and mixed before LC/MS/MS analysis.
as §4, §5, §6

A short description of data set [3]: Liver microsomal stability in canine. Conditions: dog; canine liver microsomes, 0.5 mg protein/mL, 1 μM compound, 37° C. The protocol: as §1, §2, §3, §4, §5, §6
Data set [4] is described as follows: Liver microsomal stability in mouse. Conditions: mouse liver microsomes, 0.5 mg protein/mL, 1 μM compound, 37° C. The protocol:
as §7, §8, §2, §9, §10, §4, §5, §6

For the molecule `CCn1c(-c2nc3cc(C(=O)N4CCC[C@@H](N)C4)cc(OC)c3n2C)cc2ccsc21` [Compound 3, (R)-(3-aminopiperidin-1-yl)(2-(6-ethyl-6H-thieno[2,3-b]pyrrol-5-yl)-7-methoxy-1-methyl-1H-benzo[d]imidazol-5-yl)methanone], in data set [1], the half-life (in general, the time in which the quantity being followed falls by half) at 1 μM was determined as 4.62 h and the intrinsic metabolic clearance (microsomal CLint) (as a rule, the capacity of the preparation to metabolise the compound, expressed as a volume cleared per time) at 1 μM was 5 µL/min/mg. Also, in data set [2], the half-life at 1 μM came out at 3.98 h and the intrinsic metabolic clearance (microsomal CLint) at 1 μM stood at 5.8 µL/min/mg.

Turning to `CCn1c(-c2nc3cc(C(=O)N4CCC[C@@H](N)C4)cc(OC)c3n2C)cc2cc(C)sc21` [Compound 9, (R)-(3-aminopiperidin-1-yl)(2-(6-ethyl-2-methyl-6H-thieno[2,3-b]pyrrol-5-yl)-7-methoxy-1-methyl-1H-benzo[d]imidazol-5-yl)methanone], in data set [3], the half-life at 1 μM is 23.1 h and the microsomal CLint at 1 μM is 1 µL/min/mg. In addition, in data set [2], the t1/2 result is on record as “→∞”.

In data set [1], `COc1cc(C(=O)N2CCC[C@@H](N)C2)cc2nc(-c3cc4ccsc4n3CC3CC3)n(C)c12` [Compound 18, (R)-(3-aminopiperidin-1-yl)(2-(6-(cyclopropylmethyl)-6H-thieno[2,3-b]pyrrol-5-yl)-7-methoxy-1-methyl-1H-benzo[d]imidazol-5-yl)methanone] yielded a half-life at 1 μM of 3.5 h and a microsomal CLint at 1 μM of 6.6 µL/min/mg. Also, in data set [4], the half-life at 1 μM is 4.13 h and the microsomal CLint at 1 μM is 5.6 µL/min/mg.

Consider `COc1cc(C(=O)N2CCC[C@@H](N)C2)cc2nc(-c3cc4ccsc4n3CC(C)C)n(C)c12` [Compound 20, (R)-(3-aminopiperidin-1-yl)(2-(6-isobutyl-6H-thieno[2,3-b]pyrrol-5-yl)-7-methoxy-1-methyl-1H-benzo[d]imidazol-5-yl)methanone], for which the half-life at 1 μM is 11.6 h in data set [4] and 5.25 h in data set [2]. In addition, the microsomal CLint at 1 μM in data set [4] turned out to be 2 µL/min/mg; in data set [2], 4.4 µL/min/mg.

In data set [2], `COc1cc(C(=O)N2CCC[C@@H](N)C2)cc2nc(-c3cc4ccsc4n3CC(F)(F)F)n(C)c12` [Compound 21, (R)-(3-aminopiperidin-1-yl)(7-methoxy-1-methyl-2-(6-(2,2,2-trifluoroethyl)-6H-thieno[2,3-b]pyrrol-5-yl)-1H-benzo[d]imidazol-5-yl)methanone] returned a half-life at 1 μM of 2.97 h and an intrinsic clearance (microsomal CLint) at 1 μM of 7.8 µL/min/mg.

In data set [4], `COc1cc(C(=O)N2CCC[C@@H](N)C2)cc2nc(-c3cc4ccsc4n3CC3CCC3)n(C)c12` [Compound 22, (R)-(3-aminopiperidin-1-yl)(2-(6-(cyclobutylmethyl)-6H-thieno[2,3-b]pyrrol-5-yl)-7-methoxy-1-methyl-1H-benzo[d]imidazol-5-yl)methanone] registered a half-life at 1 μM of 2.68 h and a microsomal CLint at 1 μM of 8.6 µL/min/mg.

Consider `COc1cc(C(=O)N2CCC[C@@H](N)C2)cc2nc(-c3cc4cc(C)sc4n3CC3CC3)n(C)c12` [Compound 23, (R)-(3-aminopiperidin-1-yl)(2-(6-(cyclopropylmethyl)-2-methyl-6H-thieno[2,3-b]pyrrol-5-yl)-7-methoxy-1-methyl-1H-benzo[d]imidazol-5-yl)methanone], for which, in data set [4], the half-life at 1 μM turned out to be 3.98 h and the microsomal CLint at 1 μM was 5.8 µL/min/mg.

(Values after US20200407370A1, “PEPTIDYLARGININE DEIMINASE INHIBITOR AND USE THEREOF” (Nanjing Transthera Biosciences Co., Ltd., priority 2018, published 2020).)
